Data from patent publication US6541463B1, “Inhibitors of type 5 and type 3 17β-hydroxysteroid dehydrogenase and methods for their use” (Endorecherche, Inc., priority 1998, dated 2003).

How the values were obtained:
estrogen receptor = molecular target: T1, estrogen receptor (Rattus norvegicus, UniProt P06211); assay: Estrogen receptor (ER) assay: inhibition of [3H]E2 binding, uterine cytosol
T1 construct: from tissue; host or cells: uterine cytosol of gonadectomized female Sprague-Dawley rats
T1 sequence (P06211 1-600): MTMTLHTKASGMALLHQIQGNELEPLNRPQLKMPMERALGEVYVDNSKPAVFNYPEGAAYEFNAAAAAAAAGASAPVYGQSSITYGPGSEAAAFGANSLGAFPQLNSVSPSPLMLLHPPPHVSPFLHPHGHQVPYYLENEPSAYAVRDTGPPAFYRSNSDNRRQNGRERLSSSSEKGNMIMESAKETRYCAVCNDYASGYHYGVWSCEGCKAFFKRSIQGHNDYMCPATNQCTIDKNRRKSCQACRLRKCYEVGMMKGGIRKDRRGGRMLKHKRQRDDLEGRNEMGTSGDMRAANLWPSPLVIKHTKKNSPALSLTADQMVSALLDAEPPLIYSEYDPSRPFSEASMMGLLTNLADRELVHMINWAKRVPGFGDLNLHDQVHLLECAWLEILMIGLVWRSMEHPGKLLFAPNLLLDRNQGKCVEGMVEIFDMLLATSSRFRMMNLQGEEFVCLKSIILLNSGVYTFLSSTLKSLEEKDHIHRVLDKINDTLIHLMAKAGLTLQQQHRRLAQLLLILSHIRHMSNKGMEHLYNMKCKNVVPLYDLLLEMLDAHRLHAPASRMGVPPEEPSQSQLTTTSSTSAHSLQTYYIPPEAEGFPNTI
Experimental: Female Sprague-Dawley rats (Crl: CD(SD)Br) weighing 200-300 g were obtained from Charles-River Inc. (St-Constant, Québec, Canada). The rats were gonadectomized under general anesthesia (Isoflurane) and killed by cervical dislocation 24 hours later. The uteri were rapidly removed, dissected free from adhering tissue and frozen on dry-ice. Uteri were kept at −80° C. until assay. All subsequent steps were performed at 0-4° C. Uteri were homogenized in 10 vol (wt/vol) of buffer A (25 mM Tris-HCI, 1.5 mM EDTA disodium salt, 10 mM α-monothioglycerol, 10% glycerol, and 10 mM sodium molybdate, pH 7.4), using a Polytron PT-10 homogenizer (Brinkman Instruments, Canada) at a setting of 5 for three periods of 10 sec, with intervals of 10 sec for cooling. The homogenate was then centrifuged at 105,000×g for 60 min in a Beckman L5-65 ultracentrifuge (Fullerton, Calif.). The protein concentration of the cytosol fraction was measured according to the method of Bradford (Anal. Biochem. 72: 248-254, 1976), using bovine serum albumin as standard.
Estrogen binding was measured using the dextran-coated charcoal adsorption technique as described previously (Asselin et al., Endocrinology, 101: 666-671, 1977; Asselin and Labrie, J. Steroid Biochem., 9: 1079-1082, 1978). Briefly, [^3H]E2 solubilized in ethanol were diluted into buffer A. Aliquots of uterine cytosol preparation (0.1 ml) were incubated with 5 nM [^3H]E2 (˜200,000 cpm, 0.1 ml) in the presence or absence of the indicated concentrations of unlabeled compounds (0.1 ml, prepared in buffer A containing 10% ethanol) for 3 h at room temperature. Unbound steroids were then separated by incubation for 15 min at 0-4° C. with 0.3 ml 0.5% Norit-A and 0.05% Dextran T-70 in buffer B (1.5 mM EDTA disodium salt, 10 mM monothioglycerol, and 10 mM Tris-HCI, pH 7.4) and centrifuged at 3,000×g for 15 min. Aliquots of the supernatant (0.3 ml) were removed for radioactivity measurement.

[1] = test system: Shionogi mouse mammary carcinoma cells; assay: Androgenic activity: stimulation of proliferation of Shionogi cells; assay type: cell-based
Summary of the method: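 Values are the percent stimulation of cell number, measured by Coulter counter, after 10–12 days of exposure to 10^−7 M or 10^−6 M compound. Androgen-sensitive Shionogi cells were seeded at 20 000 cells/well in triplicate in dextran-charcoal-treated FCS medium, refreshed every 3–4 days.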

| SMILES | % Inhibition Estrogen Receptor E^−6 (estrogen receptor; Table 4′, E^−6) | % Inhibition Estrogen Receptor E^−8 (estrogen receptor; Table 4′, E^−8) | Androgenic Activity Shionogi, Basal E^−6 ([1]; Table 4′, E^−6) | Androgenic Activity Shionogi, Basal E^−7 ([1]; Table 4′, E^−7) | other results |
| --- | --- | --- | --- | --- | --- |
| COCCOc1cc2c(cc1C#N)C1CC[C@@]3(C)C(CC[C@@]34CCC(C)(C)C(=O)O4)C1CC2 (stereo partly drawn) [EM-1396] | 2% | 3% | −15% | 0% |  |
| CC1(C)CC[C@@]2(CCC3C4CCc5cc6oncc6cc5C4CC[C@@]32C)OC1=O (stereo partly drawn) [EM-1407-CS, 1,3,5(10)-estratrien-(2,3-oximino)-17(R)-spiro-2′-(5′,5′-dimethyl-6′-oxo)tetrahydropyran] | 0% | 2% | −23% | 0% |  |
| CCS(=O)(=O)Oc1ccc2c(c1)CCC1C2CCC2(C)C1CCC21CCC(C)(C)C(=O)O1 (stereo not drawn) [EM-1364-CS] | 5% | 0% | −16% | 0% |  |
| CC1(C)CCC2(CCC3C4CCc5cc(O)c([N+](=O)[O-])cc5C4CCC32C)OC1=O (stereo not drawn) [EM-1125-CS] | 2% | 2% | −10% | 3% |  |
| COCCOc1ccc2c(c1)CCC1C2CCC2(C)C1CCC21CCC(C)(C)C(=O)O1 [EM-1368-CS, 3-Methoxyethoxy-1,3,5(10)-estratrien-17(R)-spiro-2′-(5′,5′-dimethyl-6′-oxo)-tetrahydropyran] | 0% | 0% | −22% | 8% |  |
| CCC(=O)O[C@]1(C(C)=O)CCC2C3C=C(C)C4=CC(=O)C[C@H](C)[C@]4(C)C3CC[C@@]21C (stereo partly drawn) [CS-243] |  |  |  |  | % Inhibition Estrogen Receptor (estrogen receptor; E^−6): 0%; % Inhibition Estrogen Receptor (estrogen receptor; E^−8): 1%; Androgenic Activity Shionogi, Basal ([1]; E^−6): −23; Androgenic Activity Shionogi, Basal ([1]; E^−7): −13 |
| CN(C)CCOc1ccc2c(c1)CCC1C2CCC2(C)C1CCC21CCC(C)(C)C(=O)O1 (stereo not drawn) [EM-1389-CS] | 0% | 0% | −41% | 0% |  |
| CC(=O)O[C@]1(C(=O)N(C)C)CCC2C3C=C(C)C4=CC(=O)CC[C@]4(C)C3CC[C@@]21C (stereo partly drawn) [EM-1159] |  |  |  |  | % Inhibition Estrogen Receptor (estrogen receptor; E^−6): 1%; % Inhibition Estrogen Receptor (estrogen receptor; E^−8): 0%; Androgenic Activity Shionogi, Basal ([1]; E^−6): −14; Androgenic Activity Shionogi, Basal ([1]; E^−7): 15 |
| COC(=O)CCCC(=O)O[C@]1(C(C)=O)CC[C@H]2[C@@H]3C=C(C)C4=CC(=O)CC[C@]4(C)[C@H]3CC[C@@]21C [EM-1007, 6-Methyl-4,6-pregnadien-17α-ol-3,20-dione 4′-Carbomethoxybutyrate] |  |  |  |  | % Inhibition Estrogen Receptor (estrogen receptor; E^−6): 0%; % Inhibition Estrogen Receptor (estrogen receptor; E^−8): 0%; Androgenic Activity Shionogi, Basal ([1]; E^−6): −31; Androgenic Activity Shionogi, Basal ([1]; E^−7): 0 |
| CC1(C)CC[C@@]2(CC[C@H]3[C@@H]4CCc5c(cc(Br)c(O)c5Br)[C@H]4CC[C@@]32C)OC1=O [EM-1382-CS] | 3% | 0% | 0% | 0% |  |
| COCCOc1cc2c(cc1C(=O)O)C1CCC3(C)C(CCC34CCC(C)(C)C(=O)O4)C1CC2 [EM-1405, 2-Carboxy-3-(2″-methoxyethyloxy)-1,3,5(10)-estratrien-17(R)-spiro-2′-(5′,5′-dimethyl-6′-oxo)tetrahydropyran] | 0% | 0% | 0% | 0% |  |
| COc1cc2c(cc1C)C1CCC3(C)C(CCC34CCC(C)(C)C(=O)O4)C1CC2 (stereo not drawn) [EM-1412-CS] | 0% | 0% | −11% | 0% |  |
| COc1ccc2c(c1)CCC1C2CCC2(C)C1CCC21CCC(C)(C)C(=O)O1 (stereo not drawn) [EM-1370] | 2% | 0% | −11% | 12% |  |
| CC1(C)CC[C@@]2(CCC3C4CCc5cc(C(N)=O)ccc5C4CCC32C)OC1=O (stereo partly drawn) [EM-1404] | 0% | 0% | 0% | 0% |  |
| CCCC(=O)O[C@]1(C)C(=O)CCC2C3C=C(C)C4=CC(=O)CC[C@]4(C)C3CC[C@@]21C (stereo partly drawn) [EM-1078] |  |  |  |  | % Inhibition Estrogen Receptor E^−6 (estrogen receptor; E^−6): 0%; % Inhibition Estrogen Receptor E^−8 (estrogen receptor; E^−8): 5%; Androgenic Activity Shionogi, Basal E^−6 ([1]; E^−6): 45; Androgenic Activity Shionogi, Basal E^−7 ([1]; E^−7): 5 |
| CC1CCC2(CCC3C4CCc5cc(O)c([N+](=O)[O-])cc5C4CCC32C)OC1=O [EM-1131, 2-Nitro-1,3,5(10)-estratrien-3-ol-17(R)-spiro-2′-(5′-methyl-6′-oxo)tetrahydropyran] | 3% | 5% | 0% | 0% |  |
| COCCOc1cc2c(cc1C(N)=O)C1CC[C@@]3(C)C(CC[C@@]34CCC(C)(C)C(=O)O4)C1CC2 (stereo partly drawn) [EM-1424, 2-Carbamoyl-3-(2″-methoxyethyloxy)-1,3,5(10)-estratrien 17(R)-spiro-2′-(5′,5′-dimethyl-6′-oxo)tetrahydropyran] | 3% | 3% | −17% | 0% |  |
| CC1CCC2(CCC3C4CCc5cc(O)c([N+](=O)[O-])cc5C4CCC32C)OC1=O [EM-1126, 2-Nitro-1,3,5(10)-estratrien-3-ol-17(R)-spiro-2′-(5′-methyl-6′-oxo)tetrahydropyran] | 0% | 1% | −8% | 0% |  |
| CC1(C)CC[C@@]2(CCC3C4CCc5cc(C(=O)O)ccc5C4CC[C@@]32C)OC1=O (stereo partly drawn) [EM-1401, 3-Carboxy-1,3,5(10)-estratrien-17(R)-spiro-2′-(5′,5′-dimethyl-6′-oxo)tetrahydropyran] | 2% | 5% | 0% | 2% |  |
| COc1ccc(CC(=O)O[C@]2(C(C)=O)CCC3C4C=C(C)C5=CC(=O)C=C[C@]5(C)C4CC[C@@]32C)cc1 (stereo partly drawn) [EM-1291] |  |  |  |  | % Inhibition Estrogen Receptor (estrogen receptor; E^−6): 0%; % Inhibition Estrogen Receptor (estrogen receptor; E^−8): 0%; Androgenic Activity Shionogi, Basal ([1]; E^−6): −44; Androgenic Activity Shionogi, Basal ([1]; E^−7): −8 |
| CCC[C@@H]1CC2C3C=CC4=CC(=O)CC[C@]4(C)C3CC[C@]2(C)C1=O (stereo partly drawn) [EM-1097] |  |  |  |  | % Inhibition Estrogen Receptor E^−6 (estrogen receptor; E^−6): 1%; % Inhibition Estrogen Receptor E^−8 (estrogen receptor; E^−8): 0%; Androgenic Activity Shionogi, Basal E^−6 ([1]; E^−6): −12; Androgenic Activity Shionogi, Basal E^−7 ([1]; E^−7): 18 |
| CC12CCC3c4ccc(F)cc4CCC3C1CCC21CCCC(=O)O1 (stereo not drawn) [EM-1170-CS] | 0% | 0% | −27% | 12% |  |
| CC1(C)CCC2(CCC3C4CCc5cc(OS(C)(=O)=O)ccc5C4CCC32C)OC1=O (stereo not drawn) [EM-1365-CS] | 4% | 2% | −28% | 4% |  |
| C[C@]12CCC3c4cc([N+](=O)[O-])c(O)cc4CCC3C1CC[C@@]21CCCC(=O)O1 (stereo partly drawn) [EM-1124, 2-Nitro-1,3,5(10)-estraetriene-3-ol-17(R)-spiro-2′-(6′-oxo)tetrahydropyran] | 0% | 0% | −11% | 0% |  |
